Data: US12656349B2, “Measurement of bevacizumab-insensitive vascular endothelial growth factor-a” (Board of Regents, The University of Texas System, priority 2019, dated 2026)
Values belong to the substance of their own block, whether it stands above or below them.

What was measured:
sEV-VEGF = target: T1, sEV-VEGF (Homo sapiens, UniProt P15692); assay: Flow cytometric analysis of binding of coupled microbeads to VEGF on the surface of sEVs; conditions: exo-FITC fluorescence
T1 construct: Parental ES2, SKOV3, HCT116 and 786-0 cell lines were purchased from ATCC; endogenous in cells; host or cells: sEVs of parental (VEGF+/+) ES2 and HCT116 cells
T1 sequence (P15692 27-215 isoform P15692-2): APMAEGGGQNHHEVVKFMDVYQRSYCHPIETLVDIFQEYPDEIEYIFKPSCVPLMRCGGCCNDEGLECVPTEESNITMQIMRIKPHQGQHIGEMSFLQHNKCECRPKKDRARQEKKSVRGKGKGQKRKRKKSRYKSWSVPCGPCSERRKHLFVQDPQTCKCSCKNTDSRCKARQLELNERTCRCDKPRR
Description: To detect sEV-associated proteins by using Ab-coupled microbeads, acquisition and analysis of flow cytometry data were performed using a FACSCalibur™ cytometer equipped with CellQuest™ Pro software (BD Biosciences). […] Thereafter, microbeads were incubated with sEVs (100 μg, approximately 2×10^8 vesicles) at 4° C. for 16 h with rotation, washed with 1% BSA in PBS, stained with exo-FITC dye, and then acquired. Binding of Ab to protein on the surface of sEVs was evaluated by analyzing exo-FITC fluorescence in the gated population of singlet microbeads. A minimum of 10,000 gated events was analyzed for each sample. […] Following washing, microbeads were acquired and PerCP fluorescence analyzed in the gated population of singlet microbeads. […] Three independent experiments were performed for each assay. Contour plots were generated by using CellQuest™ Pro software.

[1] = test system: VEGF in cancer cell-conditioned media; assay: Quantification of unbound bevacizumab in whole and sEV-depleted cancer cell-conditioned media (ELISA); format: binding, human
Description: Samples of plasma and ascites (diluted 1:10 in PBS) and conditioned media were centrifuged at 2,400×g at 4° C. for 10 min to remove intact cells and cell debris. Thereafter, supernatants were filtered through a 0.2 μm pore size filter to remove larger particles. A 300 μL aliquot of filtrate was retained for analysis of VEGF. The remainder of the filtrate was centrifuged at 100,000×g at 4° C. for 18 h to remove sEVs. Thereafter, the supernatant (comprising of sEV-depleted sample) was assayed for VEGF.
Wells of 96-well High Bind microplates were coated with recombinant VEGF (100 ng) at RT for 16 h, After washing three times with wash buffer (R&D Systems), wells were blocked with 10% goat serum for 1 h and washed again. […] Absorbance was read at 450 nm.

VEGFR2 = VEGFR2 phosphorylation in HUVEC (immunoblot); format: cell-based, human
Description: (§1) Uptake of sEVs was blocked by treating HUVEC with chlorpromazine (15 μM) or dynasore (50 μM) for 30 min prior to addition of sEVs. As a negative control, HUVEC were pretreated with DMSO solvent (0.1%). VEGFR signaling was blocked by treating HUVEC with axitinib (1 nM) or vandetanib (1 μM) for 2 h or with neutralizing Ab to VEGFR2 (250 ng/mL) for 1 h prior to addition of sEVs or recombinant VEGF. […] Thereafter, mixtures were added to HUVEC cultures. To detect intracellular VEGF, cancer cells where indicated were incubated at 37° C. for 6 h with brefeldin A (BioLegend) (5 μg/mL) to block protein secretion and then harvested.
Extracts were prepared by lysing whole cells and sEVs in M-PER buffer (Thermo Fisher Scientific). Protein concentrations of lysates were determined by Bradford assay (BioRad). Lysates were separated by SDS-polyacrylamide gel electrophoresis under non-reducing conditions to detect VEGF and under reducing conditions to detect other proteins, and then transferred to polyvinylidene difluoride membrane (GE Healthcare). Membranes were blocked with 5% non-fat milk in Tris-buffered saline with 0.1% Tween-20 (TBS-T), incubated with primary Ab at 4° C. for 16 h, and then washed with TBS-T buffer. Primary Ab were used at the following dilutions: 1:1000 (for Ab to TSG101, α-actinin-4, HSP90B1, calnexin, phospho-VEGFR2, VEGFR2, VEGF); 1:2000 (for Ab to HSP70); 1:5000 (for Ab to actin). Thereafter, membranes were incubated with 1-IRP-conjugated secondary Ab (1:5000 dilution), washed and visualized with ECL detection reagent (Millipore). Immunoblot data was verified in 3 independent experiments.

HUVEC = assay: Tube formation assay in HUVEC; format: cell-based, human
Description: as §1
Wells of 96-well plates were coated with growth factor-reduced Matrigel (BD Biosciences) (50 μL/well) and incubated at 37° C. for 30 min. HUVEC (10^4 cells/well) were then seeded in FBS-free Medium 199 without or with addition of sEVs (100 μg/mL) or recombinant VEGF (1 ng/mL), or seeded in whole or sEV-depleted conditioned media. Following incubation at 37° C. for 4 h, capillary tube structures were visualized under a Nikon TS100 light microscope attached to a digital camera. In each experiment, images of 2 to 3 random 100× fields of each well were captured by using NIS Element BR 4 software (Nikon). The number of tubes in each field was quantified by using NIH Image) software with Angiogenesis Analyzer plugin, and an average calculated for each well. […]

ES2 VEGF^−/− cells = assay: Nude mice with i.p. ES2 VEGF−/− xenografts administered sEVs or recombinant VEGF; format: in vivo; conditions: vs control Ig
Description: (§2) Animal studies were conducted in compliance with protocols approved by the UTMDACC Institutional Animal Care and Use Committee. Four-week-old female nude mice (purchased from UTMDACC animal facility) were used to propagate xenografts. To evaluate VEGF levels in ascites, mice were inoculated i.p, with 1×10^6 ES2 VEGF^+/+ cells, and euthanized by CO2 asphyxiation upon formation of morbid ascites (median survival time of 3 weeks), To evaluate the effects of sEVs, mice were inoculated i.p. with 2×10^6 GFP-expressing ES2 VEGF^−/− cells. […] Mice were treated with these agents i.p. 3 times a week for 2 weeks and thereafter euthanized. […] The 6 doses of sEVs at 500 μg per dose was based on the average volume of ascites and concentration of tumor-derived sEV-VEGF in ascites that forms in mice with i.p. xenografts derived from ES2 VEGF^+/+ cells (FIGS. 15A, 15B). Following euthanasia, volumes of ascites were measured. GFP-expressing tumors were visualized under a Leica MZMLIII stereomicroscope equipped with a GFP filter set and digital camera. Images were captured by using Picture Frame software (Optronics). Tumor burden was quantified by measuring areas of fluorescence signals within the abdominal cavity in captured images by using Image Pro Plus software (Media Cybernetics) as performed previously (Ko et al., 2009). To visualize intratumoral blood vessels, sections of omental tumor tissues, frozen in Optimal Cutting Temperature compound (Thermo Fisher Scientific), were stained with Ab to GFP (1:500 dilution) and CD31 (1:50 dilution) and with DAPI, and viewed under a Nikon 80i fluorescence microscope. Numbers of intratumoral CD31^+ cells were counted in 5 random 100× fields per section and an average score was determined for each mouse. To evaluate circulating VEGF levels, mice were inoculated s.c. with 5×10^6 ES2 VEGF^+/+ cells or HCT116 VEGF^+/+ cells. At 7 days thereafter when tumors were palpable, blood samples were collected retro-orbitally. […] Volumes of s.c. tumors were calculated from 2 perpendicular measurements of tumor diameters taken using calipers. Pre- and post-treatment plasma samples were pre-cleared with Protein G Sepharose 4 Fast Flow (GE Healthcare) at 4° C. for 16 h to remove Ab-bound VEGF and thereafter were assayed for VEGF by ELISA.

parental ES2 cells = assay: Nude mice with s.c. tumors from parental ES2 cells, tumor volume and plasma human VEGF; format: in vivo
Description: as §2, with “Pre- and post-treatment plasma samples were pre-cleared with Protein G Sepharose 4 Fast Flow (GE Healthcare) at 4° C. for 16 h to remove Ab-bound VEGF and thereafter were assayed for VEGF by ELISA.” left out

parental HCT116 cells = assay: Nude mice with s.c. tumors from parental HCT116 cells, tumor volume and plasma human VEGF; format: in vivo
Description: as §2, with “Pre- and post-treatment plasma samples were pre-cleared with Protein G Sepharose 4 Fast Flow (GE Healthcare) at 4° C. for 16 h to remove Ab-bound VEGF and thereafter were assayed for VEGF by ELISA.” left out

[2] = endothelial cells stimulated with VEGF+/+ sEVs
[3] = endothelial cells stimulated with recombinant VEGF

Binding to VEGF+/+ sEVs (sEV-VEGF; coupled microbeads incubated with VEGF+/+ sEVs): bound | Binding to VEGF−/− sEVs (sEV-VEGF; coupled microbeads incubated with VEGF−/− sEVs (negative control)): not
Substance: VEGFR1/R2-Fc: chimera of the ligand-binding domains of VEGFR1 and VEGFR2 fused to the Fc portion of human IgG1

Substance: bevacizumab: humanized monoclonal antibody to human vascular endothelial growth factor (VEGF)
Levels of unbound bevacizumab in whole media compared with sEV-depleted media ([1]; cancer cell-conditioned media incubated with bevacizumab): almost identical | Unbound bevacizumab levels ([1]; sEV-depleted media to which recombinant VEGF189 had been added): decrease | VEGFR2 phosphorylation (VEGFR2; [2]): not | VEGFR2 phosphorylation (VEGFR2; [3]): blocked | VEGFR2 phosphorylation (VEGFR2; endothelial cells stimulated with sEV-depleted media): completely blocked | VEGFR2 phosphorylation (VEGFR2; endothelial cells stimulated with whole media): only partially inhibited | Tube formation (HUVEC; [2]): not | Tube formation (HUVEC; [3]): blocked | Angiogenesis (ES2 VEGF^−/− cells; mice administered VEGF+/+ sEVs): not | Ascites (ES2 VEGF^−/− cells; mice administered VEGF+/+ sEVs): not | Tumor growth (ES2 VEGF^−/− cells; mice administered VEGF+/+ sEVs): not | Tumor growth (ES2 VEGF^−/− cells; mice administered recombinant VEGF189, 5 mg/kg i.p. 3 times a week for 2 weeks, P<0.001): inhibited | Angiogenesis (ES2 VEGF^−/− cells; mice administered recombinant VEGF189, P<0.0001): inhibited | Ascites (ES2 VEGF^−/− cells; mice administered recombinant VEGF189, P<0.001): inhibited | sEV-VEGF levels in plasma (parental ES2 cells; ES2, estimated from difference between whole and sEV-depleted plasma, following treatment, P<0,01): increased | non-sEV-VEGF levels in plasma (parental ES2 cells; ES2, sEV-depleted plasma, following treatment, P<0.05): decreased | Tumor growth (parental ES2 cells; s.c. ES2 tumors, treatment for one week): did not inhibit | sEV-VEGF levels in plasma (parental HCT116 cells; HCT116, estimated from difference between whole and sEV-depleted plasma, following treatment, P<0.05): increased | non-sEV-VEGF levels in plasma (parental HCT116 cells; HCT116, sEV-depleted plasma, following treatment, P<0.001): decreased | Tumor growth (parental HCT116 cells; s.c. HCT116 tumors, treatment for one week): did not inhibit
